Assays:
col5a1 = test: RT-PCR of col5a1 mRNA isoforms after Vivo-Morpholino injection; type: in vivo, zebrafish; details: serial intra-abdominal injection, 80 ng/mg vMO
Experimental: Zebrafish qRT-PCR. RNA extraction, PCR and quantitative RT-PCR (qRT-PCR) was performed as previously described using total RNA from dissected whole VAT tissue of 10 mm zebrafish. (Rawls J F, et al. (2007), PNAS 104(18):7622-7627.) VAT and SAT were dissected from adult Ekkwill strain wild-type zebrafish and used to assess plxnd1 mRNA levels (FIG. 18(B)). Samples contained 5-8 siblings or mutants per group, and qRT-PCR was ran with three biological replicate groups, and reactions ran in triplicate.
Zebrafish were raised under normal conditions until 30-50 days post fertilisation. Fish were anesthetised in 0.67 g/L MS222 and SL measured using an eyepiece reticle. Intra-abdominal injections were then performed on a Nanoject II injector (Drummond) as previously described. (McMenamin S K, et al (2013), Endocrinology 154(4):1476-1487.) At each injection, dosage was adjusted according to body weight (mg) using the following equation: mg=−48.10+7.36*SL+0.68*(SL-8.94)^2. (McMenamin S K, et al (2013), Endocrinology 154(4):1476-1487.) Concentration of individual compounds at injection were (relative to volume/mass of fish): 80 ng/mg col5a1-ile2 vMO (5′-[…]-3′; SEQ ID NO.: 55) or col5a1-e3i3 vMO (5′-[…]-3′; SEQ ID NO.: 56) (Gene-Tools, LLC), 100 μM EDHB (Sigma) and 80 ng/mg EdU. Control animals were injected with either a standard control vMO (5′-[…]-3′; SEQ ID NO.: 57) (Gene-Tools) or 0.1% DMSO.

Type V collagen (Col5) = test: Col5 immunofluorescence in VAT after vMO injection; type: in vivo, zebrafish; details: endothelial cell and peri-adipocyte locations
Experimental: Immunohistochemistry was performed as previously described (Kanther M, et al. (2011), Gastroenterology 141(1):197-207.) Immunohistochemistry was conducted with antibodies to Type V collagen (Col5) (Rockland, #600-401-107S), Laminin (Sigma, #L-9393), WCL15 (Romano N, et al. (1998), Anatomy and embryology 198(1):31-41; van der Sar A M, et al. (2004), Trends in microbiology 12(10):451-457), and Alexa 568 (Invitrogen, #A-1 1011). Transmission electron microscopy was carried out as described previously. (Flynn E J, et al. (2009), Journal of lipid research 50(8):1641-1652.) Whole 10-12 mm SL fish were processed for paraffin sectioning and Masson's trichrome, combined Masson's and Elastin, periodic acid Schiff (PAS) and Alcian Blue stains. (Sabaliauskas N A, et al. (2006), Methods 39(3):246-254.)
Zebrafish were raised under normal conditions until 30-50 days post fertilisation. Fish were anesthetised in 0.67 g/L MS222 and SL measured using an eyepiece reticle. Intra-abdominal injections were then performed on a Nanoject II injector (Drummond) as previously described. (McMenamin S K, et al (2013), Endocrinology 154(4):1476-1487.) At each injection, dosage was adjusted according to body weight (mg) using the following equation: mg=−48.10+7.36*SL+0.68*(SL-8.94)^2. […]

[1] = Turbidity assay of ECM extracted from VAT (in vitro fibrillogenesis); parameters: species or system zebrafish; details: ECM of sibling VAT, vMO injected before extraction
From the text: To assess fibrillogenesis in plxnd1 mutant VAT, ECM is extracted from zebrafish VAT, and fibril polymerization and gel formation is induced in vitro (FIG. 13). Turbidity assays are used to determine the rate and ultimate extent of fibrillogenesis. ECM was purified from dissected zebrafish VAT (˜100 VATS per tube, triplicate tubes per condition) as previously described. (Uriel S, et al. (2009), Tissue engineering. Part C, Methods 15(3):309-321.) Urea extraction was allowed to proceed for 14-21 days at 4° C. Protein concentration (˜7 mg/ml) was assessed by the Bradford assay (Thermo Scientific). […] To induce fibril polymerization and gel formation, acetic acid was added to a pH of 7. Turbidity assays were conducted as previously described using a Spectronic 20D+ spectrometer (Thermo Scientific). (Wood G C & Keech M K (1960), The Biochemical journal 75:588-598.)

| Substance | splicing of col5a1 (RT-PCR, mRNA isoform) (col5a1) | Col5 protein levels (Col5 reactivity) (Type V collagen (Col5)) | in vitro fibrillogenesis [1] |
| --- | --- | --- | --- |
| col5a1-e3i3 vMO: Vivo-Morpholino 5′-GAGTTCCTACTTACCTCAAACACCT-3′ (SEQ ID NO.: 56) targeting zebrafish col5a1 exon 3-intron 3 boundary (all phosphorodiamidate morpholino (PMO); Vivo-Morpholino, delivery moiety not given here, further chemistry not fully specified) | skipping of exon 3 | – | – |
| col5a1-ile2 vMO: Vivo-Morpholino 5′-GAAACATGGATGCTACAGAGAGAGA-3′ (SEQ ID NO.: 55) targeting zebrafish col5a1 intron 1-exon 2 boundary (all phosphorodiamidate morpholino (PMO); Vivo-Morpholino, delivery moiety not given here, further chemistry not fully specified) | inclusion of part of intron 1 | significantly reduced | did not affect |

From patent US11921120B2, “Compositions and methods for identifying and modulating metabolic health” (Duke University, priority 2015, dated 2024)
